ChEMBL document CHEMBL1137978, “Three new compounds from the plant Lippia alva as inhibitors of chemokine receptor 5 (CCR5)” (Bioorg Med Chem Lett, 2004)

Legend:
Assay type in all cases: functional, cell-based
[1] = target: T1, C-C chemokine receptor type 5 (Homo sapiens, UniProt P51681); test: Inhibition of MIP-1beta ligand of chemokine receptor 5 induced calcium signal in U-87-CCR5 cells by calcium mobilization assay
[2] = target: T1, C-C chemokine receptor type 5; test: Inhibition of 50% of RANTES co-receptor of chemokine receptor 5 induced calcium signal in U-87-CCR5 cells by calcium mobilization assay
[3] = target: T1, C-C chemokine receptor type 5; test: Inhibition of MIP-1alpha ligand of chemokine receptor 5 induced calcium signal in U-87-CCR5 cells by calcium mobilization assay
[4] = target: T1, C-C chemokine receptor type 5; test: Inhibition of RANTES co-receptor of chemokine receptor 5 induced calcium signal in U-87-CCR5 cells by calcium mobilization assay

T1 sequence (P51681 whole entry): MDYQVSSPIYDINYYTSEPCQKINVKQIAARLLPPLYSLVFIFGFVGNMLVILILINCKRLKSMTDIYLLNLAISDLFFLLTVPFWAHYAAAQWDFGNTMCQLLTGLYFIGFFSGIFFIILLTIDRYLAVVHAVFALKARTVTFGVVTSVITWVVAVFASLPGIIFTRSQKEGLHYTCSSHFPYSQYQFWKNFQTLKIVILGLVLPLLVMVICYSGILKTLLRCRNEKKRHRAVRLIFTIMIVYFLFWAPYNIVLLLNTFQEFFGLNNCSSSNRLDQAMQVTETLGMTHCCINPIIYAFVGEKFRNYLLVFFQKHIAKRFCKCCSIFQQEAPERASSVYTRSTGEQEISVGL

Row | Compound | IC50 [1] [µM] | IC50 [2] [µM] | IC50 [3] [µM] | IC50 [4] [µM]
1 | COc1ccc(/C=C/C(=O)OC(C)C(=O)[C@H]2C[C@@H]2[C@H](O)[C@H]2CC=CC(=O)O2)cc1 (some centres undefined) | 5.5 | 8.7 | > 10 | 
2 | CC(OC(=O)/C=C/c1ccc(O)cc1)C(=O)[C@H]1C[C@@H]1[C@H](O)[C@H]1CC=CC(=O)O1 (some centres undefined) | 7.2 |  | 10 | > 10
3 | COc1ccc(/C=C\C(=O)OC(C)C(=O)[C@H]2C[C@@H]2[C@H](O)[C@H]2CC=CC(=O)O2)cc1 (some centres undefined) | 6 |  | 8.8 | > 10
